inhibition, Activity and Ki data for 15 compounds are collected here from ChEMBL document CHEMBL1143240, “Inhibiting dihydrodipicolinate synthase across species: towards specificity for pathogens?” (Bioorg Med Chem Lett, 2008).

Active and inactive are the calls of the source. No cut-off for these calls is given here.

In test [1] the test system is Escherichia coli. The test is described as follows: Inhibition of Escherichia coli DHDPS at 20 mM.
Test [2] has as its target T1, Dihydrodipicolinate synthase (Bacillus anthracis) (UniProt A0A6L7H340).
T1 sequence (whole entry): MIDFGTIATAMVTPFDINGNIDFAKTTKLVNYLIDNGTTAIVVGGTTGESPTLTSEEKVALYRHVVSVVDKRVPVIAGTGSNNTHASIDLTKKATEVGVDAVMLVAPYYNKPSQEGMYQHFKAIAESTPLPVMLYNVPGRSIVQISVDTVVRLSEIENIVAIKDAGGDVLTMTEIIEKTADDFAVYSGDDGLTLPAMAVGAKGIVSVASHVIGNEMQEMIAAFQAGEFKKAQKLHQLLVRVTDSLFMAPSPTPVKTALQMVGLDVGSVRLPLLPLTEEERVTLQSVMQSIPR
Briefly: Inhibition of Bacillus anthracis DHDPS at 20 mM.

For test [3], the target named is 4-hydroxy-tetrahydrodipicolinate synthase (Mycobacterium tuberculosis) (UniProt P9WP25). Briefly: Inhibition of Mycobacterium tuberculosis DHDPS at 20 mM.
Test [4] relates to Staphylococcus aureus. The test is described as follows: Inhibition of methicillin-resistant Staphylococcus aureus DHDPS at 20 mM.
The subject of test [5] is Escherichia coli. The test is described as follows: Inhibition of Escherichia coli NAL at 20 mM.
Test [6] deals with Escherichia coli. Briefly: Antibacterial activity against Escherichia coli at 20 uM relative to control. The format is functional, organism-based.
Test [7] is described as follows: Inhibition of Escherichia coli DHDPS.

As for `COC(=O)[C@@H]1CSC[C@@H](C(=O)OC)N1`, the inhibition in test [1] was 12%; in test [2] it was 19%; in test [3], 0%; in test [4] it was 0%; in test [5] it was 0%.

As for `COC(=O)[C@@H]1CS(=O)(=O)C[C@H](C(=O)OC)N1`, the inhibition in test [1] came out at 0%; in test [2], 19%; in test [3], 6%; in test [4], 0%; in test [5] it was 3%. For the same compound, the result in test [6] was inactive.

As to `N[C@@H](CC=O)C(=O)O`, in test [7], the Ki was determined as 14 mM.

Take `COC(=O)c1cccc(C(=O)OC)n1`: the inhibition was determined as 5% in test [1]; 13% in test [2]; 0% in test [3]; 0% in test [4]; 0% in test [5].

Consider `O=C(O)[C@@H]1CCC[C@H](C(=O)O)N1`, for which the inhibition is 49% in test [1]; 73% in test [2]; 43% in test [3]; 51% in test [4]; 21% in test [5].

As to `O=C(O)c1cc(=O)cc(C(=O)O)[nH]1`, the inhibition was determined as 74% in test [1]; 0% in test [2]; 73% in test [3]; 83% in test [4]; 27% in test [5]. In addition, the result in test [6] was Active.

With `CC(=O)C(=O)O` [PYRUVATE], the Ki in test [7] came to 7 mM.

Consider `COC(=O)[C@@H]1CCC[C@H](C(=O)OC)N1`, for which the inhibition came to 92% in test [1]; 99% in test [2]; 24% in test [3]; 58% in test [4]; 18% in test [5].

As for `COC(=O)[C@@H]1C[S@@+]([O-])C[C@H](C(=O)OC)N1`, the inhibition came out at 8% in test [1]; 8% in test [2]; 1% in test [3]; 10% in test [4]; 0% in test [5].

In the case of `COC(=O)[C@@H]1CS(=O)(=O)C[C@@H](C(=O)OC)N1`, the inhibition was 14% in test [1]; 6% in test [2]; 7% in test [3]; 0% in test [4]; 0% in test [5].

`COC(=O)[C@@H]1C[S@+]([O-])C[C@H](C(=O)OC)N1`: the inhibition turned out to be 20% in test [1]; 22% in test [2]; 14% in test [3]; 12% in test [4]; 38% in test [5].

Turning to `COC(=O)[C@@H]1C[S+]([O-])C[C@@H](C(=O)OC)N1` (some centres undefined), the inhibition was 0% in test [1]; 7% in test [2]; 0% in test [3]; 7% in test [4]; 7% in test [5].

Consider `COC(=O)c1cc(=O)cc(C(=O)OC)[nH]1`, for which the inhibition was 85% in test [1]; 0% in test [2]; 84% in test [3]; 88% in test [4]; 64% in test [5].

Take `COC(=O)[C@@H]1CSC[C@H](C(=O)OC)N1`: the inhibition in test [1] came out at 35%; in test [2], 23%; in test [3], 0%; in test [4], 0%; in test [5] it was 1%.

Consider `O=C(O)c1cccc(C(=O)O)n1`, for which the inhibition in test [1] was found to be 76%; in test [2], 80%; in test [3] it was 75%; in test [4], 67%; in test [5], 1%.
